Test results as given in US20220378791A1, “JAK1 INHIBITORS FOR THE TREATMENT OF MYELODYSPLASTIC SYNDROMES” (Incyte Corporation, priority 2014, published 2022).

What was measured:
[1] = tested on: MDS patients; conditions: study of 14 MDS patients; cited from earlier work
[2] = tested on: MDS patients; conditions: 83 patients enrolled, 51 completed 12 weeks of therapy; cited from earlier work
[3] = target: T1, human JAK2 (a.a. 828-1132) (Homo sapiens, UniProt O60674); assay: In vitro JAK kinase assay (HTRF), JAK2; format: biochemical; conditions: IC50 ratio, selectivity for JAK1 over JAK2, 1 mM ATP
T1 construct: JAK2 (a.a. 828-1132); His tag (N); made in house; host or cells: insect cells (baculovirus)
Protocol: (§1) Compounds herein were tested for inhibitory activity of JAK targets according to the following in vitro assay described in Park et al., Analytical Biochemistry 1999, 269, 94-104. The catalytic domains of human JAK1 (a.a. 837-1142), JAK2 (a.a. 828-1132) and JAK3 (a.a. 781-1124) with an N-terminal His tag were expressed using baculovirus in insect cells and purified. The catalytic activity of JAK1, JAK2 or JAK3 was assayed by measuring the phosphorylation of a biotinylated peptide. The phosphorylated peptide was detected by homogenous time resolved fluorescence (HTRF). […] Reactions were carried out at room temperature for 1 hour and then stopped with 20 μL 45 mM EDTA, 300 nM SA-APC, 6 nM Eu-Py20 in assay buffer (Perkin Elmer, Boston, Mass.). Binding to the Europium labeled antibody took place for 40 minutes and HTRF signal was measured on a Fusion plate reader (Perkin Elmer, Boston, Mass.). See Table 2 for data for compounds of the examples as tested by the assay of Example A at 1 mM ATP.

[4] = target: T2, human JAK1 (a.a. 837-1142) (Homo sapiens, UniProt P23458); assay: In vitro JAK kinase assay (HTRF), JAK1; format: biochemical; conditions: 1 mM ATP
T2 construct: human JAK1 (a.a. 837-1142); His tag (N); made in house; host or cells: insect cells (baculovirus)
Protocol: as §1, with “Mass.).” for “Mass.). See Table 2 for data for compounds of the examples as tested by the assay of Example A at 1 mM ATP.”

T2 sequence (P23458 849-1154): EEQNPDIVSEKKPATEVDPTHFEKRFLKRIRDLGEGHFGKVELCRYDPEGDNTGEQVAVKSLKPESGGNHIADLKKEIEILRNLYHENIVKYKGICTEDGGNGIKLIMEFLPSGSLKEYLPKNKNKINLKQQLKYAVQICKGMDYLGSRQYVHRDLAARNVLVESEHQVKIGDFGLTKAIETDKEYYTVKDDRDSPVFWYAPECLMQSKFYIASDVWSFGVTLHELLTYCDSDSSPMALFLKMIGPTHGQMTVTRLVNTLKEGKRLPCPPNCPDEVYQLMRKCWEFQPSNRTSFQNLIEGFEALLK
T1 sequence (O60674 828-1132): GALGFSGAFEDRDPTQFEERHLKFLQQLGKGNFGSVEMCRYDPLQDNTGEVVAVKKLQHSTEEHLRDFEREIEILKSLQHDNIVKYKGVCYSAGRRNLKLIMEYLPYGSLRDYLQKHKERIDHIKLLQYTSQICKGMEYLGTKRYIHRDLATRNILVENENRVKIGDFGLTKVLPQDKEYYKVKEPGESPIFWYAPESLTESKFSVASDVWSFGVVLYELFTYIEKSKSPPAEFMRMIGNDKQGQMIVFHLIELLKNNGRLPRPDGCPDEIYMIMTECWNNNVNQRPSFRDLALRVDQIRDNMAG

Compound | JAK2/JAK1 [3] | IC50 [4] [nM] | also measured
etanercept |  |  | erythroid hematologic improvement [1]: 25 % of patients; improvement in platelet counts and ANC [1]: 12.5 % of evaluable patients
O=C1CCC(N2C(=O)c3ccccc3C2=O)C(=O)N1 (centres unmarked) [thalidomide] |  |  | patients showed hematologic improvement [2]: 16 patients; previously transfusion-dependent patients becoming transfusion independent [2]: 10 patients
N#CCC(CN1CCN(C(=O)c2ccc(C#N)cc2F)CC1)n1cc(-c2ncnc3[nH]ccc23)cn1 (single isomer, unassigned) [Example 3, 4-[(4-{3-cyano-2-[4-(7H-pyrrolo[2,3-d]pyrimidin-4-yl)-1H-pyrazol-1-yl]propyl}piperazin-1-yl)carbonyl]-3-fluorobenzonitrile] | >10 | < 10 | 
N#CCC1(n2cc(-c3ncnc4[nH]ccc34)cn2)CN(C2CCN(C(=O)c3ccnc(C(F)(F)F)n3)CC2)C1 [Example 7, [3-[4-(7H-pyrrolo[2,3-d]pyrimidin-4-yl)-1H-pyrazol-1-yl]-1-(1-{[2-(trifluoromethyl)pyrimidin-4-yl]carbonyl}piperidin-4-yl)azetidin-3-yl]acetonitrile] | >10 | < 10 | 
N#CCC1(n2cc(-c3ncnc4[nH]ccc34)cn2)CN([C@H]2CC[C@@H](Oc3cc(CN4CC[C@H](O)C4)cc(C(F)(F)F)n3)CC2)C1 [Example 20, {1-(cis-4-{[4-{[(3S)-3-hydroxypyrrolidin-1-yl]methyl}-6-(trifluoromethyl)pyridin-2-yl]oxy}cyclohexyl)-3-[4-(7H-pyrrolo[2,3-d]pyrimidin-4-yl)-1H-pyrazol-1-yl]azetidin-3-yl}acetonitrile] | >10 | < 10 | 
C[C@H](O)CNCc1cc(OC2CCN([C@H]3C[C@](CC#N)(n4cc(-c5ncnc6[nH]ccc56)cn4)C3)CC2)nc(C(F)(F)F)c1 [Example 23, {trans-3-(4-{[4-({[(2S)-2-hydroxypropyl]amino}methyl)-6-(trifluoromethyl)pyridin-2-yl]oxy}piperidin-1-yl)-1-[4-(7H-pyrrolo[2,3-d]pyrimidin-4-yl)-1H-pyrazol-1-yl]cyclobutyl}acetonitrile] | >10 | < 10 | 
N#CCC1(n2cc(-c3ncnc4[nH]ccc34)cn2)CN(C2CCN(C(=O)Nc3ccc(F)cc3C(F)(F)F)CC2)C1 [Example 6, 4-{3-(Cyanomethyl)-3-[4-(7H-pyrrolo[2,3-d]pyrimidin-4-yl)-1H-pyrazol-1-yl]azetidin-1-yl}-N-[4-fluoro-2-(trifluoromethyl)phenyl]piperidine-1-carboxamide] | >10 | < 10 | 
